These results are taken from ChEMBL document CHEMBL1146518, “Phenolic metabolites of Dalea versicolor that enhance antibiotic activity against model pathogenic bacteria” (2004).

For assay [1], the system named is Staphylococcus aureus. Kind of assay: Antimicrobial activity against Staphylococcus aureus after 18 hrs by serial twofold dilution test. In kind it is functional.
The target of assay [2] is T1, Quinolone resistance protein NorA (Staphylococcus aureus) (UniProt P0A0J7).
T1 sequence (whole entry): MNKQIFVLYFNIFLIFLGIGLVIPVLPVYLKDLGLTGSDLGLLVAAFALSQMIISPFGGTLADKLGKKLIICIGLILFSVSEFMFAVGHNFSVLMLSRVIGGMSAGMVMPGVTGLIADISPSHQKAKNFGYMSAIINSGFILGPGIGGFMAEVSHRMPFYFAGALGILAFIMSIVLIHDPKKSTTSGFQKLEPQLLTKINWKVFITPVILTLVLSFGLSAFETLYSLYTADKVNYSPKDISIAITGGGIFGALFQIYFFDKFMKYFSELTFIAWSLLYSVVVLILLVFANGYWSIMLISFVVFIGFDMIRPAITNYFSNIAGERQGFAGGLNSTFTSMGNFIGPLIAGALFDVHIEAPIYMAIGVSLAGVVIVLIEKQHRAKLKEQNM
Kind of assay: Inhibition of NorA MDR efflux pump in Staphylococcus aureus assessed as increase in antimicrobial activity of erythromycin at 10 ug/ml after 18 hrs by twofold serial dilution method.

The target of assay [3] is T1, Quinolone resistance protein NorA (Staphylococcus aureus). Kind of assay: Inhibition of NorA MDR efflux pump in Staphylococcus aureus assessed as increase in antimicrobial activity of tetracycline at 10 ug/ml after 18 hrs by twofold serial dilution method.
For assay [4] the target is unchanged. Kind of assay: Inhibition of NorA MDR efflux pump in Staphylococcus aureus assessed as increase in antimicrobial activity of berberine at 10 ug/ml after 18 hrs by twofold serial dilution method.
For assay [5], the system named is Bacillus cereus. Kind of assay: Inhibition of NorA MDR efflux pump in Bacillus cereus assessed as fold increase in antimicrobial activity of berberine at 10 ug/ml after 24 hrs by twofold serial dilution method.

In brackets after ≈: the same amount, converted by molar mass. Activity calls are given as the source filed them.

On to `C=CC(C)(C)c1cc([C@@H]2CC(=O)c3c(O)cc(O)c(CC=C(C)C)c3O2)c(O)cc1O`, for which, in assay [1], the MIC was found to be 7.8 mg/L (≈ 18.4 µM).

`C=CC(C)(C)c1cc(C2COc3c(CC=C(C)C)c(O)cc(O)c3C2=O)c(O)cc1O` (stereo not drawn) [DALVERSINOL A]: in assay [1], the MIC was found to be 31.3 mg/L (≈ 73.7 µM).

For `COc1ccc(/C=C/c2cc(OC)cc(OC)c2)cc1` [TRISMETHOXYRESVERATROL], 500 mg/L (≈ 1850 µM) was the least that counted as inhibitory in assay [1] (MIC).

Take `COc1c(C)c(O)c(C)c(O)c1C(=O)/C=C/c1ccccc1`: the outcome in assay [2], in assay [3] and in assay [4] was Active. The MIC in assay [1] was 250 mg/L (≈ 838 µM). Besides, the fold change (FC) in assay [5] worked out at 30.

The term MIC denotes the smallest concentration in the dilution series that meets the test's criterion for growth inhibition. Low readings indicate greater potency, high ones weaker potency.
